Measurements as given in patent US20080182859A1 (Curis, Inc., priority 2006, published 2008).
Where a name gives a salt, the structure may show the parent alone.

Assays:
Format in all cases: cell-based
[1] = tested on: sonic hedgehog pathway; experiment: Human hedgehog reporter assay HEPM-GliLuc (HGL); conditions: HepM human embryonic palatal mesenchymal cells, Gli-luciferase reporter
Source text: (§1) Mouse (TM3: mouse Leydig cells; S12: mouse embryonic mesenchymal cells) and human (Daoy: human medulloblastoma cell; HepM: human embryonic palatal mesenchymal cell) cell lines are used to screen small molecules for their ability to modulate the activity of the sonic hedgehog pathway (Table 1, Table 2, and Table 3). Stable hedgehog pathway reporter cell lines are established by specific antibiotic selection following transfection of a reporter plasmid containing a luciferase gene located directly downstream from the gli promoter. Consequently, any observable changes in cellular luciferase activity may be attributed to changes in sonic hedgehog pathway activity in mouse and human cells, respectively, since gli is the major by-product of this pathway. To calculate activity, we generate an eleven point dose curve for each compound using 1:3 dilutions in 96 well assay plates. Each plate tested also contains low and high control to establish maximal pathway activation so to establish/compare a percentage activation of each tested compound (AMAX) on respective plates. Also we calculate EC50 values, or a concentration where the pathway will be exactly 50% activated, for each tested compound to determine potency. In these cell lines, compounds that register >20% AMAX values are considered active.
(§2) Stable hedgehog pathway reporter cell lines are established following specific antibiotic selection following transfection of a reporter plasmid In short, typically cells are plated in MicroTiter-plates at 10,000-20,000 cells per well, in growth media (containing 10%-20% FBS). After 48-72 hrs (HGL and DGL respectively) the media in the assay plates is switched to low-serum containing media (0.5% FBS). At that time compounds are added (at 1-5 μM) to the assay plates, in the presence or absence of hedgehog protein (octyl-modified version; 1-5 ng/ml). After another 24 hrs of incubation, the media from the assay plates is discarded and replaced with luciferase assay-mix. Subsequently, plates are incubated at RT for ˜15-30 mins and then read in a luminometer. [note: addition of the Hedgehog protein, although not critical, will sensitize the assay allowing the identification of weak actives].

[2] = tested on: sonic hedgehog pathway; experiment: Hedgehog pathway Gli-luciferase reporter assay, TM3 cells; conditions: TM3 mouse Leydig cells
Source text: as §1, §2

[3] = tested on: sonic hedgehog pathway; experiment: Human hedgehog reporter assay Daoy-GliLuc (DGL); conditions: Daoy human medulloblastoma cells, Gli-luciferase reporter; read-out: Daoy Avg. EC50
Source text: as §1, §2

Compound | EC50 [1] | EC50 [2] | EC50 [3]
CCOc1ccc(-c2cnc(N)nc2)cc1CN(C(=O)c1sc2ccccc2c1Cl)[C@H]1CC[C@@H](NC)CC1 [Compound 325, 3-Chloro-benzo[b]thiophene-2-carboxylic acid [5-(2-amino-pyrimidin-5-yl)-2-ethoxy-benzyl]-(4-methylamino-cyclohexyl)-amide dihydrochloride] | 50 to 250 nM | 250 to 1000 nM | < 50 nM
CN[C@H]1CC[C@@H](N(Cc2cc(-c3ccc(OC)cc3)ccc2OC)C(=O)c2sc3ccccc3c2Cl)CC1 [Compound 305, 3-Chloro-benzo[b]thiophene-2-carboxylic acid (4,4′-dimethoxy-biphenyl-3-ylmethyl)-(4-methylamino-cyclohexyl)-amide hydrochloride] | 250 to 1000 nM | < 50 nM | < 50 nM
CNC(=O)c1cc(-c2ccc(OC)c(CN(C(=O)c3sc4c(F)ccc(F)c4c3Cl)[C@H]3CC[C@@H](NC)CC3)c2)ccn1 [356 (R16)] | < 50 nM | < 50 nM | < 50 nM
CN[C@H]1CC[C@H](N(Cc2cc(-c3ccc(C(C)=O)cc3)ccc2F)C(=O)c2sc3ccccc3c2Cl)CC1 [Compound 419, 3-Chloro-benzo[b]thiophene-2-carboxylic acid (4′-acetyl-4-fluoro-biphenyl-3-ylmethyl)-(4-methylamino-cyclohexyl)-amide trifluoroacetate] | 250 to 1000 nM | < 50 nM | 50 to 250 nM
CCOc1ccc(-c2cnc(NC)nc2)cc1CN(C(=O)c1sc2ccccc2c1Cl)[C@H]1CC[C@H](NC)CC1 [Compound 402, 3-Chloro-benzo[b]thiophene-2-carboxylic acid [2-ethoxy-5-(2-methylamino-pyrimidin-5-yl)-benzyl]-(4-methylamino-cyclohexyl)-amide dihydrochloride] | 250 to 1000 nM | 1000 to 2500 nM | 50 to 250 nM
CN[C@H]1CC[C@@H](N(Cc2cc(-c3cncnc3)ccc2OC)C(=O)c2sc3c(F)ccc(F)c3c2Cl)CC1 [343 (R15)] | < 50 nM | < 50 nM | < 50 nM
CN[C@H]1CC[C@@H](N(Cc2cc(-c3cnccn3)ccc2OC)C(=O)c2sc3c(F)ccc(F)c3c2Cl)CC1 [344 (R14)] | < 50 nM | < 50 nM | < 50 nM
CN[C@H]1CC[C@@H](N(Cc2cc(-c3cccc(C#N)c3)ccc2OC)C(=O)c2sc3ccccc3c2Cl)CC1 [Compound 304, 3-Chloro-benzo[b]thiophene-2-carboxylic acid (3′-cyano-4-methoxy-biphenyl-3-ylmethyl)-(4-methylamino-cyclohexyl)-amide hydrochloride] | < 50 nM | < 50 nM | < 50 nM
CN[C@H]1CC[C@@H](N(Cc2cc(-c3ccccc3)ccc2OC)C(=O)c2sc3ccccc3c2Cl)CC1 [Compound R3, 3-Chloro-benzo[b]thiophene-2-carboxylic acid (4-methoxy-biphenyl-3-ylmethyl)-(4-methylamino-cyclohexyl)-amide hydrochloride] | 50 to 250 nM | < 50 nM | 50 to 250 nM
CN[C@H]1CC[C@@H](N(Cc2cc(-c3ccc(C(=O)C(F)(F)F)cc3)ccc2OC)C(=O)c2sc3c(F)ccc(F)c3c2Cl)CC1 [Compound 349, 3-Chloro-4,7-difluoro-benzo[b]thiophene-2-carboxylic acid [4-methoxy-4′-(2,2,2-trifluoro-acetyl)-biphenyl-3-ylmethyl]-(4-methylamino-cyclohexyl)-amide trifluoroacetate] | < 50 nM | < 50 nM | < 50 nM
CN[C@H]1CC[C@H](N(Cc2cc(-c3ccc(C(=O)C(F)(F)F)cc3)ccc2F)C(=O)c2sc3ccccc3c2Cl)CC1 [Compound 424, 3-Chloro-benzo[b]thiophene-2-carboxylic acid [4-fluoro-4′-(2,2,2-trifluoro-acetyl)-biphenyl-3-ylmethyl]-(4-methylamino-cyclohexyl)-amide trifluoroacetate] | 250 to 1000 nM | < 50 nM | < 50 nM
CN[C@H]1CC[C@@H](N(Cc2cc(-c3ccc(C(=O)C(F)(F)F)cc3)ccc2OC)C(=O)c2sc3ccccc3c2Cl)CC1 [Compound 302, 3-Chloro-benzo[b]thiophene-2-carboxylic acid [4-methoxy-4′-(2,2,2-trifluoro-acetyl)-biphenyl-3-ylmethyl]-(4-methylamino-cyclohexyl)-amide trifluoroacetate] | < 50 nM | < 50 nM | < 50 nM
CCOc1ccc(-c2cncnc2)cc1CN(C(=O)c1sc2ccccc2c1Cl)[C@H]1CC[C@@H](NC)CC1 [Compound 326, 3-Chloro-benzo[b]thiophene-2-carboxylic acid (2-ethoxy-5-pyrimidin-5-yl-benzyl)-(4-methylamino-cyclohexyl)-amide dihydrochloride] | 50 to 250 nM | 50 to 250 nM | < 50 nM
CN[C@H]1CC[C@@H](N(Cc2cc(-c3cncnc3)ccc2OC)C(=O)c2sc3ccccc3c2Cl)CC1 [324 (R20)] | 50 to 250 nM | 50 to 250 nM | < 50 nM
CN[C@H]1CC[C@@H](N(Cc2cc(-c3ccc(N(C)C(C)=O)cc3)ccc2OC)C(=O)c2sc3ccccc3c2Cl)CC1 [Compound 318, 3-Chloro-benzo[b]thiophene-2-carboxylic acid [4′-(acetyl-methyl-amino)-4-methoxy-biphenyl-3-ylmethyl]-(4-methylamino-cyclohexyl)-amide hydrochloride] | < 50 nM | < 50 nM | < 50 nM
CCOc1ccc(-c2ccc(NC)nc2)cc1CN(C(=O)c1sc2ccccc2c1Cl)[C@H]1CC[C@H](NC)CC1 [Compound 399, 3-Chloro-benzo[b]thiophene-2-carboxylic acid [2-ethoxy-5-(6-methylamino-pyridin-3-yl)-benzyl]-(4-methylamino-cyclohexyl)-amide dihydrochloride] | 1000 to 2500 nM | 1000 to 2500 nM | 250 to 1000 nM
CN[C@H]1CC[C@@H](N(Cc2cc(-c3ccnc(C)c3)ccc2OC)C(=O)c2sc3c(F)ccc(F)c3c2Cl)CC1 [Compound 345, 3-Chloro-4,7-difluoro-benzo[b]thiophene-2-carboxylic acid [2-methoxy-5-(2-methyl-pyridin-4-yl)-benzyl]-(4-methylamino-cyclohexyl)-amide dihydrochloride] | < 50 nM | < 50 nM | < 50 nM
CN[C@H]1CC[C@@H](N(Cc2cc(-c3ccnc(N(C)C)c3)ccc2OC)C(=O)c2sc3c(F)ccc(F)c3c2Cl)CC1 [Compound 358, 3-Chloro-4,7-difluoro-benzo[b]thiophene-2-carboxylic acid [5-(2-dimethylamino-pyridin-4-yl)-2-methoxy-benzyl]-(4-methylamino-cyclohexyl)-amide dihydrochloride] | < 50 nM | < 50 nM | < 50 nM
CN[C@H]1CC[C@@H](N(Cc2cc(-c3cc(C)nc(C)c3)ccc2OC)C(=O)c2sc3cccc(F)c3c2Cl)CC1 [Compound 353, 3-Chloro-4-fluoro-benzo[b]thiophene-2-carboxylic acid [5-(2,6-dimethyl-pyridin-4-yl)-2-methoxy-benzyl]-(4-methylamino-cyclohexyl)-amide dihydrochloride] | 50 to 250 nM | < 50 nM | 50 to 250 nM
CCOc1ccc(-c2ccc(C(=O)C(F)(F)F)cc2)cc1CN(C(=O)c1sc2c(F)ccc(F)c2c1Cl)[C@H]1CC[C@@H](NC)CC1 [Compound 341, 3-Chloro-4,7-difluoro-benzo[b]thiophene-2-carboxylic acid [4-ethoxy-4′-(2,2,2-trifluoro-acetyl)-biphenyl-3-ylmethyl]-(4-methylamino-cyclohexyl)-amide trifluoroacetate] | 50 to 250 nM | < 50 nM | 
CN[C@H]1CC[C@H](N(Cc2cc(-c3ccc(N(C)C)nc3)ccc2OC)C(=O)c2sc3ccccc3c2Cl)CC1 [Compound 405, 3-Chloro-benzo[b]thiophene-2-carboxylic acid [5-(6-dimethylamino-pyridin-3-yl)-2-methoxy-benzyl]-(4-methylamino-cyclohexyl)-amide bis(trifluoroacetate)] | 250 to 1000 nM | 1000 to 2500 nM | 
CN[C@H]1CC[C@@H](N(Cc2cc(-c3ccnc(C)c3)ccc2OC)C(=O)c2sc3ccccc3c2Cl)CC1 [331 (R11)] | < 50 nM | < 50 nM | 
CN[C@H]1CC[C@@H](N(Cc2cc(-c3cccc(C(C)=O)c3)ccc2OC)C(=O)c2sc3c(F)ccc(F)c3c2Cl)CC1 [Compound 364, 3-Chloro-4,7-difluoro-benzo[b]thiophene-2-carboxylic acid (3′-acetyl-4-methoxy-biphenyl-3-ylmethyl)-(4-methylamino-cyclohexyl)-amide hydrochloride] | < 50 nM | < 50 nM | 
